Data: paper PMC3598812, “Evaluation of Anti-Hyperalgesic and Analgesic Effects of Two Benzodiazepines in Human Experimental Pain: A Randomized Placebo-Controlled Study” (PLoS ONE, 2013)
Entries after “also recorded” stand apart in the source; their conditions may differ.

Key:
Assay type in all cases: in vivo, human
[1] = test system: healthy male volunteers; experiment: Area of static hyperalgesia after intradermal capsaicin injection (512 mN von Frey hair); conditions: for Change in the area of static hyperalgesia over time: main analysis, pairwise multiple comparisons within each drug; for Area of static hyperalgesia: single oral dose (clobazam 20 mg, clonazepam 1 mg, tolterodine 1 mg), mean (SD); for Change in the area of static hyperalgesia between 60 min and the measurement after flumazenil: subgroup analysis (n = 8), pairwise comparisons within each drug
From the text: Intradermal injection of capsaicin causes a brief stinging/burning pain at the injection site followed by development of secondary hyperalgesia, i.e. hyperalgesia detected at surrounding (not injected) skin [15], [16]. Secondary hyperalgesia after intradermal capsaicin is the result of sensitization of the central nervous system, which is one of the most relevant aspects of neuroplastic changes. This model was sensitive to the action of GABAergic compounds in animal studies.
The capsaicin solution was prepared by the Hospital Pharmacy and underwent sterile filtration into sterile septum-sealed vials. The sterile solution (1 mg/ml) was placed into sterile syringes and used for intradermal injection at room temperature. The skin temperature was measured using a digital thermometer, and was 32°C+/−1 in all subjects.
Subjects remained semi-supine during the experiment. Before capsaicin injection, the skin of the forearm was cleaned using an antiseptic wipe and allowed to air dry. The injection site was marked midway between the elbow and the wrist. Using a surgical skin marker, 4 lines were drawn through the injection site, so that they intersected the corners of a regular octagon (figure 2). These lines were marked every 0.5 cm from the center to the edges using a predefined grid. […] We determined the area of hyperalgesia by adding the areas of each triangle in which hyperalgesia was recorded.
Using a 1-ml tuberculin syringe fitted with a 27-gauge disposable needle, 100 µl capsaicin were injected […] into the skin, at the intersection of the 4 vectors previously drawn. A white skin elevation appeared during injection ensuring correct injection.
Static mechanical hyperalgesia was judged to be present when the subjects reported that applying a 512 mN von Frey Hair, 5 and 30 minutes after capsaicin injection, elicited pain with an intensity of at least 4 using a numerical rating scale (NRS, whereby 0 = no pain and 10 = worst pain). Only these subjects were included in the study. In order to document pain induction, the subject recorded pain intensity at injection and 5 minutes post-injection using a 10 cm visual analogue pain scale (VAS), whereby 0 = no pain and 10 = worst pain imaginable.
The area of secondary hyperalgesia was assessed using a calibrated 512 mN von Frey hair. The punctuated probe was moved along the 8 radial lines defined above, starting approximately 6 cm away from the site of injection, at each mark in steps of 0.5 cm. The weighted von Frey hair was placed gently on the skin and the load was applied for 2 seconds. The volunteers were asked to report when the pricking sensation changed to a pain sensation. At least 4 seconds elapsed between consecutive stimuli. This procedure was repeated for each vector. The number corresponding to the marker at which sensation changes as described above was noted and the individual numbers were used to calculate the area of hyperalgesia.
The flow of the experiment is illustrated in figure 3. After training, basal values for the pain tests were determined. The study medication was given immediately after the intradermal injection of capsaicin. Thus, basal values were recorded for all tests, except for those related to capsaicin injection. Because of the relatively short duration of hyperalgesia induced by capsaicin, the recordings of basal values before drug administration would yield a too short testing procedure.

[2] = test system: healthy male volunteers; experiment: Area of dynamic mechanical hyperalgesia after intradermal capsaicin (cotton wool stroking); conditions: single oral dose (clobazam 20 mg, clonazepam 1 mg, tolterodine 1 mg), mean (SD)
Method: The area of dynamic mechanical hyperalgesia was determined by gently stroking a hand-held cotton wool tip on a 1 cm strip of the skin, at a rate of approximately 1 cm/s. Subjects were asked to report when the sensation changed from a non-painful to a painful sensation. The borders of dynamic hyperalgesia were delineated similarly to the determination of static hyperalgesia.

[3] = test system: healthy male volunteers; experiment: Conditioned pain modulation (cold pressor test and pressure algometry); conditions: difference in pressure pain detection threshold after vs before cold pressor test, mean (SD)
From the text: This method explores the endogenous modulation of nociceptive input. Under normal conditions, pain after application of a “test” nociceptive stimulus is attenuated by the application of an additional conditioning noxious stimulus to a remote body region, reflecting diffuse endogenous inhibition, [20]. In the present study, pressure pain detection threshold and cold pressure test (see below) were used as test and conditioning stimuli, respectively. An increase in pressure pain detection threshold immediately after cold pressure test was an indication of CPM.
The subjects placed their hand into a container filled with ice water. In order to maximize heterotopic stimulation, the hand contralateral to the side of pressure stimulation was used. The water was regularly mixed to maintain the temperature near to 0°C. The temperature of the water near the hand was monitored by a thermometer with a digital display (±0.1°C). The subjects were asked to keep the hand in the water until they felt an intolerable sensation of pain and were forced to remove the hand from the container, with a maximum time of 2 min.
Pressure pain detection threshold was measured again at the same time as the subject was withdrawing the hand from the water (one single measurement). CPM was measured as the difference in pressure pain detection threshold between measurements after and before the cold pressure test.

[4] = test system: healthy male volunteers; experiment: Cutaneous single electrical stimulation pain threshold; conditions: mean (SD)
Method: (§1) Electrical stimulation was performed through electrodes placed distal to the lateral malleolus. A 25 ms, train-of-five, 1 ms, square-wave impulse (perceived as one stimulus), was delivered by a computer-controlled constant current stimulator (Digitimer DS7A, Neurospec, Letchworth Garden City, UK). The current intensity was increased from 1 mA in steps of 0.5 mA until a pain sensation was evoked.
(§2) Three assessments were made and the mean of these 3 measurements was used for the data analysis.

[5] = test system: healthy male volunteers; experiment: Cutaneous repeated (5 stimuli) electrical stimulation, temporal summation threshold; conditions: mean (SD)
From the text: The stimulus burst used for single stimulus was repeated 5 times at 2 Hz, at constant intensity. The current intensity of the 5 stimuli was increased from 1 mA in steps of 0.5 mA until the subjects felt pain during the last 2–3 of the 5 stimuli (indicating temporal summation).
as §2

[6] = test system: healthy male volunteers; experiment: Intramuscular single electrical stimulation pain threshold (tibialis anterior); conditions: for Pain threshold after single intramuscular electrical stimulation: mean (SD)
Method: as §1
A needle was placed in the tibialis anterior muscle, 14 cm distal from the caudal end of the patella and 20 mm in depth. The same single and repeated stimulation patterns and the same procedure described for cutaneous stimulation were used.

[7] = baseline before medication, per drug session
[8] = single oral dose (clobazam 20 mg, clonazepam 1 mg, tolterodine 1 mg), 120 min after medication
[9] = single oral dose (clobazam 20 mg, clonazepam 1 mg, tolterodine 1 mg), after flumazenil 0.2 mg iv
[10] = single oral dose (clobazam 20 mg, clonazepam 1 mg, tolterodine 1 mg), 30 min after medication
[11] = single oral dose (clobazam 20 mg, clonazepam 1 mg, tolterodine 1 mg), 60 min after medication
[12] = single oral dose (clobazam 20 mg, clonazepam 1 mg, tolterodine 1 mg), 90 min after medication

Compound	Change in the area of static hyperalgesia over time [1]	Area of static hyperalgesia ([1]; 30 min after medication)	Area of static hyperalgesia ([1]; 60 min after medication)	Area of static hyperalgesia ([1]; 90 min after medication)	Area of static hyperalgesia ([1]; 120 min after medication)	Area of static hyperalgesia ([1]; after flumazenil 0.2 mg iv)	Area of dynamic hyperalgesia ([2]; 30 min after medication)	Area of dynamic hyperalgesia ([2]; 60 min after medication)	Area of dynamic hyperalgesia ([2]; 90 min after medication)	Area of dynamic hyperalgesia ([2]; 120 min after medication)	Area of dynamic hyperalgesia ([2]; after flumazenil 0.2 mg iv)	Conditioned pain modulation [3, 7]	Conditioned pain modulation [3, 8]	Conditioned pain modulation [3, 9]	Pain threshold after single cutaneous electrical stimulation [4, 7]	Pain threshold after single cutaneous electrical stimulation [4, 10]	Pain threshold after single cutaneous electrical stimulation [4, 11]	Pain threshold after single cutaneous electrical stimulation [4, 12]	Pain threshold after single cutaneous electrical stimulation [4, 8]	Pain threshold after single cutaneous electrical stimulation [4, 9]	also measured
CN1C(=O)CC(=O)N(c2ccccc2)c2cc(Cl)ccc21 [Clobazam]	no statistically significant increase	39.7 (18.6) cm^2	44.3 (17.1) cm^2	43.0 (15.0) cm^2	43.6 (16.5) cm^2	43.8 (15.0) cm^2	22.3 (13.2) cm^2	22.9 (12.4) cm^2	22.4 (13.6) cm^2	16.7 (13.0) cm^2	21.3 (14.6) cm^2	71 (98) kPa	99 (99) kPa	58 (67) kPa	10.0 (2.9) mA	10.3 (3.6) mA	10.2 (3.8) mA	11.2 (3.3) mA	12.2 (3.9) mA	12.0 (4.3) mA	Pain threshold after 5 cutaneous electrical stimuli [5, 7]: 8.3 (3.0) mA; Pain threshold after 5 cutaneous electrical stimuli [5, 10]: 8.7 (3.4) mA; Pain threshold after 5 cutaneous electrical stimuli [5, 11]: 8.7 (3.4) mA; Pain threshold after 5 cutaneous electrical stimuli [5, 12]: 9.3 (2.9) mA; Pain threshold after 5 cutaneous electrical stimuli [5, 8]: 9.9 (3.3) mA; Pain threshold after 5 cutaneous electrical stimuli [5, 9]: 9.7 (3.3) mA; Pain threshold after single intramuscular electrical stimulation [6, 7]: 1.7 (1.2) mA; Pain threshold after single intramuscular electrical stimulation [6, 8]: 3.1 (4.6) mA; Pain threshold after single intramuscular electrical stimulation [6, 9]: 2.5 (2.1) mA
O=C1CN=C(c2ccccc2Cl)c2cc([N+](=O)[O-])ccc2N1 [Clonazepam]	no statistically significant increase	37.9 (13.6) cm^2	45.6 (15.3) cm^2	43.4 (14.3) cm^2	41.9 (11.6) cm^2	39.4 (12.3) cm^2	22.4 (11.2) cm^2	19.0 (07.8) cm^2	21.7 (12.6) cm^2	16.8 (10.8) cm^2	19.2 (13.1) cm^2	70 (113) kPa	85 (77) kPa	74 (86) kPa	9.7 (3.3) mA	9.8 (3.5) mA	10.3 (3.4) mA	10.6 (3.6) mA	11.0 (3.6) mA	11.2 (3.9) mA	Change in the area of static hyperalgesia between 60 min and the measurement after flumazenil [1]: Decrease in the area of hyperalgesia after Clonazepam; Change in the area of static hyperalgesia between 60 min and the measurement after flumazenil ([1]; listed as clonazepam): significantly decreases; Pain threshold after 5 cutaneous electrical stimuli [5, 7]: 8.2 (3.1) mA; Pain threshold after 5 cutaneous electrical stimuli [5, 10]: 8.2 (3.0) mA; Pain threshold after 5 cutaneous electrical stimuli [5, 11]: 8.5 (2.9) mA; Pain threshold after 5 cutaneous electrical stimuli [5, 12]: 8.8 (3.2) mA; Pain threshold after 5 cutaneous electrical stimuli [5, 8]: 9.1 (3.1) mA; Pain threshold after 5 cutaneous electrical stimuli [5, 9]: 9.2 (3.3) mA; Pain threshold after single intramuscular electrical stimulation [6, 7]: 1.8 (1.2) mA; Pain threshold after single intramuscular electrical stimulation ([6]; baseline before medication, per drug session, listed as clonazepam): 1.84 mA; Change in pain threshold after single intramuscular electrical stimulation from baseline to after flumazenil ([6]; main analysis, pairwise comparisons within each drug): Significant increase in pain thresholds only for clonazepam; Change in pain detection threshold from baseline to peak value, intramuscular single electrical stimulation ([6]; peak value analysis, pairwise comparisons within each drug): significantly increase; also recorded: Significant increase in pain thresholds only for clonazepam in the peak value analysis; Pain detection threshold, intramuscular single electrical stimulation ([6]; peak value analysis, peak value before flumazenil, mean): 11.0; Pain threshold after single intramuscular electrical stimulation [6, 8]: 3.0 (2.5) mA; Pain threshold after single intramuscular electrical stimulation [6, 9]: 4.1 (3.7) mA; Pain threshold after single intramuscular electrical stimulation ([6]; single oral dose (clobazam 20 mg, clonazepam 1 mg, tolterodine 1 mg), after flumazenil 0.2 mg iv, listed as clonazepam): 4.05 mA
Cc1ccc(O)c([C@H](CCN(C(C)C)C(C)C)c2ccccc2)c1 [Tolterodine]	significantly increased; also recorded: Significant increase in the area of hyperalgesia only for tolterodine	36.3 (10.6) cm^2	40.6 (11.5) cm^2	43.8 (11.9) cm^2	44.7 (10.9) cm^2	47.6 (13.7) cm^2	20.3 (11.6) cm^2	23.3 (09.0) cm^2	23.1 (11.3) cm^2	23.3 (09.1) cm^2	24.7 (14.6) cm^2	68 (100) kPa	72 (114) kPa	77 (79) kPa	9.9 (2.2) mA	10.3 (2.6) mA	10.7 (2.3) mA	10.9 (2.7) mA	11.5 (2.3) mA	12.1 (2.6) mA	Pain threshold after 5 cutaneous electrical stimuli [5, 7]: 8.8 (2.3) mA; Pain threshold after 5 cutaneous electrical stimuli [5, 10]: 9.0 (2.4) mA; Pain threshold after 5 cutaneous electrical stimuli [5, 11]: 9.2 (2.2) mA; Pain threshold after 5 cutaneous electrical stimuli [5, 12]: 9.5 (2.2) mA; Pain threshold after 5 cutaneous electrical stimuli [5, 8]: 9.7 (2.1) mA; Pain threshold after 5 cutaneous electrical stimuli [5, 9]: 10.0 (2.3) mA; Pain threshold after single intramuscular electrical stimulation [6, 7]: 1.8 (1.2) mA; Pain threshold after single intramuscular electrical stimulation [6, 8]: 2.2 (1.2) mA; Pain threshold after single intramuscular electrical stimulation [6, 9]: 2.7 (1.7) mA
